Where a SMILES comes first, the peptide text is derived from it. Bridges are numbered along the chain shown (N, C = ends). Roman numbers before positions name the chains, in order. [ ]: non-standard residue; d: D form. The star is where a group is joined. X1 = O=C(O)CCCCCCCCCCCCCCCCC(=O)N[C@@H](CCC(=O)NCCOCCOCCOCCOCC(=O)*)C(=O)O; Api = NC1(C(=O)O)CCNCC1
Tested on: not listed separately
Experiment: Preliminary pharmacokinetic properties after subcutaneous administration
Type: in vivo
Settings: cynomolgus monkey; male Macaca fascicularis, subcutaneous (SC), 0.1 mg/kg, plasma, LC-MS; read-out: t½ (converted)
Description: The compound with the best activity was selected for determination of its preliminary pharmacokinetic properties. Two male Macaca fascicularis were used as experimental animals. A subcutaneous administration was performed at a dose of 0.1 mg/kg. Venous blood samples were collected before administration (0 h) and at 1 h, 2 h, 3 h, 4 h, 8 h, 12 h, 18 h, 24 h, 48 h, 96 h, 144 h, and 168 h post-administration. Plasma samples were separated by centrifugation. The plasma concentration of the compound in the plasma samples was determined using liquid chromatography-mass spectrometry.

Compound | half-life [h]
CCOc1ccc(C[C@@H](NC(=O)[C@H](N)Cc2ccccc2)C(=O)N[C@H](CC(C)C)C(=O)N[C@H](CCCCN)C(=O)N2CCC(N)(C(=O)NCCOCCOCC(=O)N[C@@H](CCCCNC(=O)COCCOCCOCCOCCNC(=O)CC[C@H](NC(=O)CCCCCCCCCCCCCCCCC(=O)O)C(=O)O)C(N)=O)CC2)cc1 [Compound 3, D-Phe-D-Tyr(Et)-D-Leu-D-Lys-4-aminopiperidine-4-carboxamide-AEEA-Lys(PEG4CH2CO-γGlu-octadecanedioic acid)-NH2] | 55.1

Biological target: T1, human κ opioid receptor (OPRK1) (Homo sapiens, UniProt P41145)
T1 construct: expressed in transfected cells; host or cells: CHO-K1
T1 sequence (P41145 whole entry): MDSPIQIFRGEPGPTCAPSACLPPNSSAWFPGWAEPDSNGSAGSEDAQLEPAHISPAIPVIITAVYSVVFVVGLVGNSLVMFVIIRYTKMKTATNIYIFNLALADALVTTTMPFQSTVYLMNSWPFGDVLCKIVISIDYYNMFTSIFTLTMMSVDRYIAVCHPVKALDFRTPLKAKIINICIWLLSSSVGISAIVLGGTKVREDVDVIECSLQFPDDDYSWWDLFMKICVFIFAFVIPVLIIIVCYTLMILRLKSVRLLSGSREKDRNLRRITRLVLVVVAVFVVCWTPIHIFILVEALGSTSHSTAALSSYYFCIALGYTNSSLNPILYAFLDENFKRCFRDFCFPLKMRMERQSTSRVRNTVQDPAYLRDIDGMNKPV
Experiment: Agonist activity: inhibition of forskolin-stimulated cAMP release (HTRF) in CHO-K1 cells stably expressing opioid receptors
Type: cell-based
Settings: CHO-K1 cell line stably expressing opioid receptors; forskolin-stimulated cAMP, HTRF
Source text: Gi-coupled human κ opioid receptor (OPRK1), upon stimulation with its specific opioid receptor agonists, can inhibit the intracellular adenylate cyclase pathway, and decrease cAMP levels. Forskolin can stimulate cAMP release in cell lines highly expressing opioid receptors. By stimulating cell lines stably transfected with opioid receptors, the inhibitory effect of a test compound on forskolin-stimulated cAMP release can be measured to determine the activity of the compound. The relative light units (RLU) from the cells after stimulation with different doses were measured via the homogeneous time-resolved fluorescence (HTRF) technique, and the EC50 of the agonist was subsequently calculated. This activity determination method is a currently commonly used method for determining the activities of opioid receptor agonists at home and abroad.
A CHO-K1 cell line stably expressing opioid receptors was used. Stably transfected cells were stimulated with various concentrations of agonists (under the stimulation of a certain concentration of forskolin). The relative light units from the cells after stimulation with different doses were measured, from which the EC50 value of the agonist was subsequently obtained by calculation.

Compound | EC50 [pM]
CC(C)C[C@@H](NC(=O)[C@@H](Cc1ccccc1)NC(=O)[C@H](N)Cc1ccccc1)C(=O)N[C@H](CCCCN)C(=O)N1CCC(N)(C(=O)O)CC1 [Difelikefalin, reference compound] | 653

Same assay, conditions: relative to Difelikefalin = 100%

Compound | Relative Activity % [%]
CCOc1ccc(C[C@@H](NC(=O)[C@H](N)Cc2ccccc2)C(=O)N[C@H](CC(C)C)C(=O)N[C@H](CCCCN)C(=O)N2CCC(N)(C(=O)N[C@@H](CCCCNC(=O)COCCOCCOCCOCCNC(=O)CC[C@H](NC(=O)CCCCCCCCCCCCCCCCC(=O)O)C(=O)O)C(N)=O)CC2)cc1 [Compound 1, D-Phe-D-Tyr(Et)-D-Leu-D-Lys-4-aminopiperidine-4-carboxamide-Lys(PEG4CH2CO-γGlu-octadecanedioic acid)-NH2] | 15.6
CCOc1ccc(C[C@@H](NC(=O)[C@H](N)Cc2ccccc2)C(=O)N[C@H](CC(C)C)C(=O)N[C@H](CCCCN)C(=O)N2CCC(N)(C(=O)NCCOCC(=O)N[C@@H](CCCCNC(=O)COCCOCCOCCOCCNC(=O)CC[C@H](NC(=O)CCCCCCCCCCCCCCCCC(=O)O)C(=O)O)C(N)=O)CC2)cc1 [Compound 2, D-Phe-D-Tyr(Et)-D-Leu-D-Lys-4-aminopiperidine-4-carboxamide-PEG1CH2CO-Lys(PEG4CH2CO-γGlu-octadecanedioic acid)-NH2] | 20.7
CCOc1ccc(C[C@@H](NC(=O)[C@H](N)Cc2ccccc2)C(=O)N[C@H](CC(C)C)C(=O)N[C@H](CCCCN)C(=O)N2CCC(N)(C(=O)NCCOCCOCC(=O)N[C@@H](CCCCNC(=O)COCCOCCOCCOCCNC(=O)CC[C@H](NC(=O)CCCCCCCCCCCCCCCCC(=O)O)C(=O)O)C(N)=O)CC2)cc1 [Compound 3, D-Phe-D-Tyr(Et)-D-Leu-D-Lys-4-aminopiperidine-4-carboxamide-AEEA-Lys(PEG4CH2CO-γGlu-octadecanedioic acid)-NH2] | 23.8
CCOc1ccc(C[C@@H](NC(=O)[C@H](N)Cc2ccccc2)C(=O)N[C@H](CC(C)C)C(=O)N[C@H](CCCCN)C(=O)N2CCC(N)(C(=O)NCCOCCOCCOCCOCC(=O)N[C@@H](CCCCNC(=O)COCCOCCOCCOCCNC(=O)CC[C@H](NC(=O)CCCCCCCCCCCCCCCCC(=O)O)C(=O)O)C(N)=O)CC2)cc1 [Compound 4, D-Phe-D-Tyr(Et)-D-Leu-D-Lys-4-aminopiperidine-4-carboxamide-PEG4CH2CO-Lys(PEG4CH2CO-γGlu-octadecanedioic acid)-NH2] | 17.2
COc1ccc(C[C@@H](NC(=O)[C@H](N)Cc2ccccc2)C(=O)N[C@H](CC(C)C)C(=O)N[C@H](CCCCN)C(=O)N2CCC(N)(C(=O)NCCOCCOCC(=O)N[C@@H](CCCCNC(=O)COCCOCCOCCOCCNC(=O)CC[C@H](NC(=O)CCCCCCCCCCCCCCCCC(=O)O)C(=O)O)C(N)=O)CC2)cc1 [Compound 5, D-Phe-D-Tyr(Me)-D-Leu-D-Lys-4-aminopiperidine-4-carboxamide-AEEA-Lys(PEG4CH2CO-γGlu-octadecanedioic acid)-NH2] | 13.6
CC(C)C[C@@H](NC(=O)[C@@H](Cc1ccc(Cl)cc1)NC(=O)[C@H](N)Cc1ccccc1)C(=O)N[C@H](CCCCN)C(=O)N1CCC(N)(C(=O)NCCOCCOCC(=O)N[C@@H](CCCCNC(=O)COCCOCCOCCOCCNC(=O)CC[C@H](NC(=O)CCCCCCCCCCCCCCCCC(=O)O)C(=O)O)C(N)=O)CC1 [Compound 6, D-Phe-D-Phe(4-Cl)-D-Leu-D-Lys-4-aminopiperidine-4-carboxamide-AEEA-Lys(PEG4CH2CO-γGlu-octadecanedioic acid)-NH2] | 12.2
CC(C)C[C@@H](NC(=O)[C@@H](Cc1ccc(F)cc1)NC(=O)[C@H](N)Cc1ccccc1)C(=O)N[C@H](CCCCN)C(=O)N1CCC(N)(C(=O)NCCOCCOCC(=O)N[C@@H](CCCCNC(=O)COCCOCCOCCOCCNC(=O)CC[C@H](NC(=O)CCCCCCCCCCCCCCCCC(=O)O)C(=O)O)C(N)=O)CC1 [Compound 7, D-Phe-D-Phe(4-F)-D-Leu-D-Lys-4-aminopiperidine-4-carboxamide-AEEA-Lys(PEG4CH2CO-γGlu-octadecanedioic acid)-NH2] | 10.5
CCOc1ccc(C[C@@H](NC(=O)[C@H](N)Cc2ccccc2)C(=O)N[C@H](CC(C)C)C(=O)N[C@H](CCCCN)C(=O)N2CCC(N)(C(=O)NCCOCCOCC(=O)N[C@@H](CCCCNC(=O)COCCOCCOCCNC(=O)CC[C@H](NC(=O)CCCCCCCCCCCCCCCCC(=O)O)C(=O)O)C(N)=O)CC2)cc1 [Compound 8, D-Phe-D-Tyr(Et)-D-Leu-D-Lys-4-aminopiperidine-4-carboxamide-AEEA-Lys(PEG3CH2CO-γGlu-octadecanedioic acid)-NH2] | 17.7
CCOc1ccc(C[C@@H](NC(=O)[C@H](N)Cc2ccccc2)C(=O)N[C@H](CC(C)C)C(=O)N[C@H](CCCCN)C(=O)N2CCC(N)(C(=O)NCCOCCOCC(=O)N[C@@H](CCCCNC(=O)COCCOCCOCCOCCOCCNC(=O)CC[C@H](NC(=O)CCCCCCCCCCCCCCCCC(=O)O)C(=O)O)C(N)=O)CC2)cc1 [Compound 9, D-Phe-D-Tyr(Et)-D-Leu-D-Lys-4-aminopiperidine-4-carboxamide-AEEA-Lys(PEG5CH2CO-γGlu-octadecanedioic acid)-NH2] | 16.4
CCOc1ccc(C[C@@H](NC(=O)[C@H](N)Cc2ccccc2)C(=O)N[C@H](CC(C)C)C(=O)N[C@H](CCCCN)C(=O)N2CCC(N)(C(=O)NCC(=O)N[C@@H](CCCCNC(=O)COCCOCCOCCOCCNC(=O)CC[C@H](NC(=O)CCCCCCCCCCCCCCCCC(=O)O)C(=O)O)C(N)=O)CC2)cc1 [Compound 10, D-Phe-D-Tyr(Et)-D-Leu-D-Lys-4-aminopiperidine-4-carboxamide-Gly-Lys(PEG4CH2CO-γGlu-octadecanedioic acid)-NH2] | 15.1
CCOc1ccc(C[C@@H](NC(=O)[C@H](N)Cc2ccccc2)C(=O)N[C@H](CC(C)C)C(=O)N[C@H](CCCCN)C(=O)N2CCC(N)(C(=O)NCC(=O)NCC(=O)N[C@@H](CCCCNC(=O)COCCOCCOCCOCCNC(=O)CC[C@H](NC(=O)CCCCCCCCCCCCCCCCC(=O)O)C(=O)O)C(N)=O)CC2)cc1 [Compound 11, D-Phe-D-Tyr(Et)-D-Leu-D-Lys-4-aminopiperidine-4-carboxamide-Gly-Gly-Lys(PEG4CH2CO-γGlu-octadecanedioic acid)-NH2] (I: H-[Api]GGK(X1)-NH2 / II: H-[dF][dY](Et)[dL][dK]; amide I:1-II:C; N-terminus assumed) | 16.9
CCOc1ccc(C[C@@H](NC(=O)[C@H](N)Cc2ccccc2)C(=O)N[C@H](CC2CC2)C(=O)N[C@H](CCCCN)C(=O)N2CCC(N)(C(=O)NCCOCCOCC(=O)N[C@@H](CCCCNC(=O)COCCOCCOCCOCCNC(=O)CC[C@H](NC(=O)CCCCCCCCCCCCCCCCC(=O)O)C(=O)O)C(N)=O)CC2)cc1 [Compound 12, D-Phe-D-Tyr(Et)-D-Cyclopropylalanine-D-Lys-4-aminopiperidine-4-carboxamide-AEEA-Lys(PEG4CH2CO-γGlu-octadecanedioic acid)-NH2] | 15.2
